From ChEMBL document CHEMBL1201862, “PubChem BioAssay data set” (2004)
Activity calls are given as the source filed them.

How the values were obtained:
Cytochrome P450 2C19 = Cytochrome P450 2C19 (Homo sapiens, UniProt P33261); test: qHTS Assay for Inhibitors and Substrates of Cytochrome P450 2C19. [Related pubchem assays: 410 ]; type: ADME; conditions: read-out: Potency
Cytochrome P450 3A4 = Cytochrome P450 3A4 (Homo sapiens, UniProt P08684); conditions: Potency;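 further: confirmatory qHTS run detecting inhibitors and substrates of CYP3A4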
[1] = tested on: Streptococcus sp. 'group A'; test: growth inhibition of control SK(-) GAS strain, dose response, counter-screen for streptokinase expression inhibitor project, luminescence, kanamycin, BacTiterGlo, confirmation (AID 1900); type: functional, organism-based
Streptococcus = test: Group A Streptococcus viability loss, dose response, counter-screen for streptokinase expression inhibitor project, luminescence, BacTiterGlo (AID 1915); type: functional, organism-based;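 further: potency for reduction of bacterial viability or growth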
Vero = Vero cell cytotoxicity, cytotoxicity control for flavivirus capping enzyme inhibitors (AID 588742); type: functional; conditions: Chlorocebus sabaeus
Streptokinase A = molecular target: T1, Streptokinase A (Streptococcus pyogenes serotype M1, UniProt P10520); test: S. pyogenes streptokinase expression inhibitors, potency, dose response, plasminogen activation absorbance, OD405 (AID 1914); type: functional, Streptococcus pyogenes M1 GAS;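 further: secreted streptokinase activity via plasminogen activation per viability signal from cell pellet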
T1 sequence (P10520 whole entry): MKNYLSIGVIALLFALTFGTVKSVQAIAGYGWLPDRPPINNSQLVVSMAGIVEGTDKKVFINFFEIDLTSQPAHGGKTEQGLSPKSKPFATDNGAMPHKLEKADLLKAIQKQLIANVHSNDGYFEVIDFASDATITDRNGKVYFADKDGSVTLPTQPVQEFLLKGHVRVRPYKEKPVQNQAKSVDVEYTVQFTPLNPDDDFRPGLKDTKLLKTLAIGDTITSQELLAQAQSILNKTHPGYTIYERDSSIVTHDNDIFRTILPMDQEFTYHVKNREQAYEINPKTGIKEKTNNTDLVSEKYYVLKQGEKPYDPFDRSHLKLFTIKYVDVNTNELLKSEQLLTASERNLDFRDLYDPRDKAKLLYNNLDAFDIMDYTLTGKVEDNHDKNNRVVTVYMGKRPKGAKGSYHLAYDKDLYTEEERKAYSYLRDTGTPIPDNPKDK

[2] = Luminescence Cell-Based Dose Retest to Confirm Inhibitors of Cancer Stem Cells. [Related pubchem assays (depositor defined):AID2717, AID2721]; type: functional; conditions: Homo sapiens
[3] = molecular target: T2, Sphingosine 1-phosphate receptor 2 (Homo sapiens, UniProt O95136); test: Dose Response Cell Based Assay for Agonists of the S1P2 Receptor. [Related pubchem assays: 729, 736, 843 ]; type: functional
T2 sequence (O95136 whole entry): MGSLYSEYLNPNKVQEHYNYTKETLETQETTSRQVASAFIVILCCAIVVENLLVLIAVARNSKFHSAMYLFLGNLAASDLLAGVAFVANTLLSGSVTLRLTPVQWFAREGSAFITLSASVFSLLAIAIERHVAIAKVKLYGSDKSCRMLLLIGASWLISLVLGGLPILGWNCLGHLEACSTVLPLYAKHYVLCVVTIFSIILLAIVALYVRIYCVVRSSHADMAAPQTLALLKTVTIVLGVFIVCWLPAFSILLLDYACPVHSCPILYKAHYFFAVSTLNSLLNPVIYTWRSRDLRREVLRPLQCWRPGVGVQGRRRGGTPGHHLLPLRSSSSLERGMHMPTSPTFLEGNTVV

[4] = molecular target: Ubiquitin carboxyl-terminal hydrolase BAP1 (Homo sapiens, UniProt Q92560); test: BAP1 deubiquitinase inhibitors, dose response, biochemical (AID 714); type: functional
[5] = molecular target: Aryl hydrocarbon receptor (Homo sapiens, UniProt P35869); test: Luminescence-based cell-based high throughput dose response assay for activators of the Aryl Hydrocarbon Receptor (AHR). [Related pubchem assays: 2796 (Primary screen (AHR activators in singlicate)), 2845 (Confirmation screen (AHR activators in triplicate)), 434939 (Counterscreen (PXR activators in triplicate)), 2804 (Summary (AHR activators))]; type: ADME
Aryl hydrocarbon receptor, sequence (P35869 whole entry): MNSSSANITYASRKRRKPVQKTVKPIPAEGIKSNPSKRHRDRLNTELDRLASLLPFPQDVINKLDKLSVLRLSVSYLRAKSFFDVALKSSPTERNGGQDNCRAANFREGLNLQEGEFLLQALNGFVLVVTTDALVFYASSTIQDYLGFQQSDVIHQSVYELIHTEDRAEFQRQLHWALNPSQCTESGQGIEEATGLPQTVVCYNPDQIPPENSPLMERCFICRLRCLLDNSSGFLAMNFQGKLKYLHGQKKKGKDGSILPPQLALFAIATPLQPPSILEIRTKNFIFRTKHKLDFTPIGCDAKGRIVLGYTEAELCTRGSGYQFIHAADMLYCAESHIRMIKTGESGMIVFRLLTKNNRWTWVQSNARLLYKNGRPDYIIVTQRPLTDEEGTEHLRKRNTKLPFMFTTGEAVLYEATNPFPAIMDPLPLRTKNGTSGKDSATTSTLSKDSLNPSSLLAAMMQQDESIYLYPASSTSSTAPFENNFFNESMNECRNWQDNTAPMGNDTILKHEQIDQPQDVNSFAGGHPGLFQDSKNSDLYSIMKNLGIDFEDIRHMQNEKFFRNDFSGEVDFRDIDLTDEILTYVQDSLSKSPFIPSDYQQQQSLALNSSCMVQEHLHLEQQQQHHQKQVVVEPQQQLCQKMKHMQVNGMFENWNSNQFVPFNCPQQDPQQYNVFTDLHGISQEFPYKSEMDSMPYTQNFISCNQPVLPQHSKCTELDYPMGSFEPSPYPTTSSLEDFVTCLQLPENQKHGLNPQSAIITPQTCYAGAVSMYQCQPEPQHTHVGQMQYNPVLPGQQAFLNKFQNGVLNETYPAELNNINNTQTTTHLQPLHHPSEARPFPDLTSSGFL

[6] = M. tuberculosis growth inhibition, HTS (AID 449762); type: functional
[7] = molecular target: Glyceraldehyde-3-phosphate dehydrogenase (Homo sapiens, UniProt P04406)
Glyceraldehyde-3-phosphate dehydrogenase, sequence (P04406 whole entry): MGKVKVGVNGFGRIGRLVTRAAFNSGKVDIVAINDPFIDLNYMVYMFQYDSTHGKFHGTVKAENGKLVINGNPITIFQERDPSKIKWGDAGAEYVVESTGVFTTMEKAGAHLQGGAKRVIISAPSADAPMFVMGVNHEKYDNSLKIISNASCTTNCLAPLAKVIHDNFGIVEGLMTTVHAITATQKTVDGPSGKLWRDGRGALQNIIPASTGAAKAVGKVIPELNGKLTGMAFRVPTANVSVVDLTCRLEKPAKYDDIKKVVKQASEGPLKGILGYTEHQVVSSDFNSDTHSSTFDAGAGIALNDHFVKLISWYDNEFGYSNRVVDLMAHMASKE

Bcl-2-related protein A1 [8] = molecular target: T3, Bcl-2-related protein A1 (Mus musculus, UniProt Q07440); test: Bfl-1 inhibitors blocking BH3 peptide binding, confirmation, biochemical, TR-FRET, mouse Bfl-1 (AID 621);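 further: TR-FRET binding of GST-Bfl-1 to FITC-labelled Bid peptide via terbium antibody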
T3 sequence (Q07440 whole entry): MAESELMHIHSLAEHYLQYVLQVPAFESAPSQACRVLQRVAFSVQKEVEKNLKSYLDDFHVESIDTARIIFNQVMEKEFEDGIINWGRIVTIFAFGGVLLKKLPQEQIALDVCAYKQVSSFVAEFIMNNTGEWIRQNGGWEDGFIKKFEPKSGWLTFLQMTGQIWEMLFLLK

Bcl-2-related protein A1 [9] = molecular target: T3, Bcl-2-related protein A1; test: Bfl-1 binding inhibitors, SAR follow-up, biochemical, fluorescence polarization (AID 1070)
[10] = molecular target: T4, Carboxy-terminal domain RNA polymerase II polypeptide A small phosphatase 1 (Homo sapiens, UniProt Q9GZU7); test: inhibitors of CTDSP1, concentration-response testing, biochemical assay, absorbance-based, actives from ultra-high-throughput screening (AID 540297); type: functional
T4 sequence (Q9GZU7 whole entry): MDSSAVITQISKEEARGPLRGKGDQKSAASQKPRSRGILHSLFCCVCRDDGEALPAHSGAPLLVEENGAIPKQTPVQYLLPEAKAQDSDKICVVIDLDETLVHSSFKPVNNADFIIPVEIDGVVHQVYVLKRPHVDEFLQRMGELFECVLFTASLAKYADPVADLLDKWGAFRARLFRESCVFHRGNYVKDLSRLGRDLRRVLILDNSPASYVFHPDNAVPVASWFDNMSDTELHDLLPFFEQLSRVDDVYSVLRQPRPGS

[11] = molecular target: T5, RNA-binding protein pos-1 (Caenorhabditis elegans, UniProt G5EF15); test: inhibitors of POS-1/mex-3 RNA binding, dose response, biochemical, fluorescence polarization (AID 1964);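 further: purified POS-1 fused to maltose binding protein made in E. coli; potency of compounds blocking POS-1 binding to fluorescent RNA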
T5 sequence (G5EF15 whole entry): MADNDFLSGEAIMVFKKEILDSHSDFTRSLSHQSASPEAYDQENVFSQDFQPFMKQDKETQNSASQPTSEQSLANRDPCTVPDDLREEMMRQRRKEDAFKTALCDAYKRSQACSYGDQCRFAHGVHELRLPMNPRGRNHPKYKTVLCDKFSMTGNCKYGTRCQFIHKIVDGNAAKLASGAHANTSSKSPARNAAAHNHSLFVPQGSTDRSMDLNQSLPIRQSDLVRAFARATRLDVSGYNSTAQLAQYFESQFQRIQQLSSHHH

[12] = molecular target: Arf-GAP with SH3 domain, ANK repeat and PH domain-containing protein 1 (Homo sapiens, UniProt Q9ULH1); type: functional;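 further: biochemical fluorescence polarization dose–response screen measuring inhibition of ASAP1; ASAP1 GAP domain stimulating GTP hydrolysis by truncated human ARF1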
[13] = molecular target: Protein-tyrosine kinase 2-beta (Homo sapiens, UniProt Q14289);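 further: potency of inhibitors of PYK2 kinase phosphorylation of poly-GT substrate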
Protein-tyrosine kinase 2-beta, sequence (Q14289 whole entry): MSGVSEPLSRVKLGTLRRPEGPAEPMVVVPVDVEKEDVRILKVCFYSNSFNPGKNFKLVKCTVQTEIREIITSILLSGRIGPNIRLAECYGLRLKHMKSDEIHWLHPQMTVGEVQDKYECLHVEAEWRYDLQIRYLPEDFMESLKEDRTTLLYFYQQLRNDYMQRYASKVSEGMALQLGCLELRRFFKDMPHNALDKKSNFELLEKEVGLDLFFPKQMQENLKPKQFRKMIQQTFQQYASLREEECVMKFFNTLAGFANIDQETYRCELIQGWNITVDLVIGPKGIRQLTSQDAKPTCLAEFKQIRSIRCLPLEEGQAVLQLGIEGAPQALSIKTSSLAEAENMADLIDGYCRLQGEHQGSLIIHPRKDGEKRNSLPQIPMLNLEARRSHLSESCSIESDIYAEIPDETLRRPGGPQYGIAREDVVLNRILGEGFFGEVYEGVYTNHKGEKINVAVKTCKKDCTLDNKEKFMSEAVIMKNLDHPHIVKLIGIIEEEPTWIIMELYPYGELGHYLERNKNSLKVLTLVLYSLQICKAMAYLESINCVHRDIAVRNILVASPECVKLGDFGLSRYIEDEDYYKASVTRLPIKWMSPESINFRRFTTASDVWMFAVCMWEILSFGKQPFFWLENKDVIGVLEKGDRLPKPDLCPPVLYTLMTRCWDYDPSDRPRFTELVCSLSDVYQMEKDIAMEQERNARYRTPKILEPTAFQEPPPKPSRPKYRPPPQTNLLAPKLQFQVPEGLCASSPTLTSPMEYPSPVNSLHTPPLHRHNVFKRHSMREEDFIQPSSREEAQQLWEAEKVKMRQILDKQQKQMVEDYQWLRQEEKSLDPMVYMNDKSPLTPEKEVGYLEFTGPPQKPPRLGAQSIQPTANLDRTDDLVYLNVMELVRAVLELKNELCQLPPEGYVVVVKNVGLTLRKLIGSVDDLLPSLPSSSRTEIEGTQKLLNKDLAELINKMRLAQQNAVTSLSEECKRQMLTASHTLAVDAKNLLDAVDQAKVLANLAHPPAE

[14] = molecular target: T6, Zinc finger protein mex-5 (Caenorhabditis elegans, UniProt Q9XUB2); test: MEX-5/TCR-2 RNA interaction inhibitors, dose response, biochemical, C. elegans, fluorescence polarization (AID 1960)
T6 sequence (Q9XUB2 whole entry): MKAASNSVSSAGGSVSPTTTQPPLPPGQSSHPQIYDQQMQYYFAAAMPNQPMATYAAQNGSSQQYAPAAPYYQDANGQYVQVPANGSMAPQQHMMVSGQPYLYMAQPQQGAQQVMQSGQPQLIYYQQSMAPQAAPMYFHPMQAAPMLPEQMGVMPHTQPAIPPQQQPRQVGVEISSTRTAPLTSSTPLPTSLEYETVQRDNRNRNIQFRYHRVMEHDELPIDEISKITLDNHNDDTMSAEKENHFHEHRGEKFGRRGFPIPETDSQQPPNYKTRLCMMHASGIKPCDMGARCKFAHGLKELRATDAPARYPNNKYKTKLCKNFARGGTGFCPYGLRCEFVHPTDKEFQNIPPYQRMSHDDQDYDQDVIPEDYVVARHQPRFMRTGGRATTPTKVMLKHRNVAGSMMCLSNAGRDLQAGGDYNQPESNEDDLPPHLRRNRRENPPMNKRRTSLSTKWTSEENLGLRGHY

[15] = cytotoxicity in KRAS-transformed pancreatic duct cells, primary screen, cell-based, fluorescence, HTS (AID 431); type: functional; conditions: Homo sapiens;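 further: cell line used: HPDE-C7K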
[16] = molecular target: T2, Sphingosine 1-phosphate receptor 2; test: Dose Response Cell Based Assay for Antagonists of the S1P2 Receptor. [Related pubchem assays: 856, 736 ]; type: functional
Genome polyprotein = Genome polyprotein (dengue virus type 2, UniProt P29990); test: Dengue-2 NS5 methyltransferase inhibitors, primary screen, biochemical, confirmation dose response (AID 588689); type: functional
Genome polyprotein, sequence (P29990 2492-3391 limits assumed): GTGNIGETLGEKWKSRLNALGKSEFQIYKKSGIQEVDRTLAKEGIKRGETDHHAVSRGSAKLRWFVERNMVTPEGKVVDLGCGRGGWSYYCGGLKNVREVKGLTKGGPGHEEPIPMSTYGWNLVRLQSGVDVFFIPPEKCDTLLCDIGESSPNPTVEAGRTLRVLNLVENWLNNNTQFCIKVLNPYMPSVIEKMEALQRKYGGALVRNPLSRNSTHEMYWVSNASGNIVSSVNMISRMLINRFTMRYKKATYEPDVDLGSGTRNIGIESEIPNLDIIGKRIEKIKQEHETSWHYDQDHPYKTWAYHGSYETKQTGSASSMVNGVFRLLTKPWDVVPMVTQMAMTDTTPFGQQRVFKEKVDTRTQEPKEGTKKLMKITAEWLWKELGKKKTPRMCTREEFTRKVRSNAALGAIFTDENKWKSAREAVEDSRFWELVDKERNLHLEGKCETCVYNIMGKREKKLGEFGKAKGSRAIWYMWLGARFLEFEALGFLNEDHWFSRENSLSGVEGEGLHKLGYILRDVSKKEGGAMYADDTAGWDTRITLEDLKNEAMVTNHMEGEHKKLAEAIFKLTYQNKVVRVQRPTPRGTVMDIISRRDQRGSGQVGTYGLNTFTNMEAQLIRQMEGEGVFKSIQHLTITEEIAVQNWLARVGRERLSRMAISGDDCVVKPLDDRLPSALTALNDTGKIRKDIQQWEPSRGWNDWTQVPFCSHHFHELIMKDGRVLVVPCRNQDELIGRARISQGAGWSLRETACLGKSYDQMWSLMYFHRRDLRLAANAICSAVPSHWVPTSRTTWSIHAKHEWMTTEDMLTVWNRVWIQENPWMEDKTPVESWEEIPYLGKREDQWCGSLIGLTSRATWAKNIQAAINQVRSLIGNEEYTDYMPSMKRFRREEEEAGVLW

[17] = molecular target: Mitogen-activated protein kinase 10 (Homo sapiens, UniProt P53779); test: Dose response biochemical screening assay for inhibitors of c-Jun N-Terminal Kinase 3 (JNK3). [Related pubchem assays: 746 ]
Mitogen-activated protein kinase 10, sequence (P53779 whole entry): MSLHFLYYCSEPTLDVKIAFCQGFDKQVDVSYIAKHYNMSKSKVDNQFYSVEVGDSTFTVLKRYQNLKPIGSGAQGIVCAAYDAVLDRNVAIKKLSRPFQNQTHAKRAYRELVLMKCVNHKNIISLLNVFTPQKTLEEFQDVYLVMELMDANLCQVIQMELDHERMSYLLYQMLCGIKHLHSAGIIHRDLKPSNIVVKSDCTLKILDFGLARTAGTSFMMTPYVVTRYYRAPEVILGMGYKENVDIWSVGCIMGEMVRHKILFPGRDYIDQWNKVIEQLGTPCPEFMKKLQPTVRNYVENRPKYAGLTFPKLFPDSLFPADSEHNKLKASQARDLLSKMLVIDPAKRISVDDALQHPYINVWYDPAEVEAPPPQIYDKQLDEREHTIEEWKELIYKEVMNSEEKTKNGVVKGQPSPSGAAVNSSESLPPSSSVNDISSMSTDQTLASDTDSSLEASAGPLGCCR

[18] = cytotoxicity in HPDE-C7 cells, cell-based, fluorescence, HTS (AID 430); type: functional; conditions: Homo sapiens
[19] = molecular target: Glucose-6-phosphate 1-dehydrogenase (Homo sapiens, UniProt P11413); test: human G6PD enzyme inhibitors, dose response, selectivity assay for P. falciparum G6PD inhibitor project, biochemical, fluorescence (AID 504792); type: functional
Glucose-6-phosphate 1-dehydrogenase, sequence (P11413 whole entry): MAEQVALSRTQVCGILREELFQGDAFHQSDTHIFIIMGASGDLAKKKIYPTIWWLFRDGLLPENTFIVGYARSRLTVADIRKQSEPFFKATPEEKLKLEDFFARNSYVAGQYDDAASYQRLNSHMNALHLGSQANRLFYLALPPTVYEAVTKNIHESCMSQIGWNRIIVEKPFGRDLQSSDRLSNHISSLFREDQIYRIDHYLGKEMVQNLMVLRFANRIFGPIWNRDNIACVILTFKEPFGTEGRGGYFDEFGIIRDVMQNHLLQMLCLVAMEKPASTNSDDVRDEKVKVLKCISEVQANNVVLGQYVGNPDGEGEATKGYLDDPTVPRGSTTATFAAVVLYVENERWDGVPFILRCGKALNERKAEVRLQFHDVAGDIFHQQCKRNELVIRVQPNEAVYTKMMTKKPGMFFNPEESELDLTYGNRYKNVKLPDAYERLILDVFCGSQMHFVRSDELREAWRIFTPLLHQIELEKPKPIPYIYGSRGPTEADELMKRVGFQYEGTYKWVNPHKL

[20] = inhibitors of PGC1a acetylation in cells, dose response, cell-based, cherry-picked samples (AID 720514); type: functional;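 further: potency may reflect raised or lowered acetylation signal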
Ephrin type-A receptor 4 = Ephrin type-A receptor 4 (Mus musculus, UniProt Q03137); test: inhibitors of EphA4 binding to KYL peptide, primary screen, biochemical, colorimetric, mouse EphA4 (AID 689); type: functional
[21] = molecular target: T7, Mannose-6-phosphate isomerase (Homo sapiens, UniProt P34949); test: human PMI inhibitors, high substrate, primary screen, biochemical, fluorescence intensity, high mannose 6-phosphate (AID 1220)
T7 sequence (P34949 whole entry): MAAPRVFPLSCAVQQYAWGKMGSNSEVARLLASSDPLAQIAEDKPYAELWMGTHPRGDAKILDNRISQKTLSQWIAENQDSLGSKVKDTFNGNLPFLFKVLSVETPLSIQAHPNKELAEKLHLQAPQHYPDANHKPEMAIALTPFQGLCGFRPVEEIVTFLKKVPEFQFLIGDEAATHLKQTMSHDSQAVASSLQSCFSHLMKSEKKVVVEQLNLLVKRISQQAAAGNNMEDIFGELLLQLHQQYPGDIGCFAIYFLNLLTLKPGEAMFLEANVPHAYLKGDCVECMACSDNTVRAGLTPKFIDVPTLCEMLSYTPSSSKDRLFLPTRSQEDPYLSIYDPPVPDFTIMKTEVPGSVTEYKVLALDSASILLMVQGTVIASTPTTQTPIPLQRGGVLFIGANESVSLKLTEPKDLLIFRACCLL

Cytochrome P450 2C19, sequence (P33261 whole entry): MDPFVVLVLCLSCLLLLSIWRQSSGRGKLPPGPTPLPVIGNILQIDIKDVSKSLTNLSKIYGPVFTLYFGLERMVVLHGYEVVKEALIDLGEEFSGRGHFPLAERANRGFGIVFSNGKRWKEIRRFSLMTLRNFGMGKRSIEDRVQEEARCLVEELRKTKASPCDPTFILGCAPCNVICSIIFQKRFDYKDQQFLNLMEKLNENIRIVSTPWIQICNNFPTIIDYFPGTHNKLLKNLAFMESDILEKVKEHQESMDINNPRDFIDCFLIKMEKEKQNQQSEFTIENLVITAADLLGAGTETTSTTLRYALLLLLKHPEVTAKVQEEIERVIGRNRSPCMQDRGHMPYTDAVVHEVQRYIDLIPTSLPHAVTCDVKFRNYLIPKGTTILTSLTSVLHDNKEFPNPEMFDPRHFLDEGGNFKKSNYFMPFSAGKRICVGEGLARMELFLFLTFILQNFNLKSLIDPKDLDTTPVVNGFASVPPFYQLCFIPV

## C=C/C1=C/Cc2ccccc2C(C[N+](=O)[O-])C(C(=O)OC)(C(=O)OC)C1 (centres undefined)
Cytochrome P450 2C19
  AC50: 7.94 µM (inconclusive)
Cytochrome P450 3A4
  AC50: 3.16 µM (inconclusive)

## Clc1ccc(-c2ccc(/C=N/Nc3cc(N4CCOCC4)nc(N4CCOCC4)n3)o2)cc1
[1]
  EC50: 19.4 µM (active)
Streptococcus
  EC50: 17.1 µM (active)
Vero
  CC50: 34.6 µM (active)
Streptokinase A
  EC50: > 150 µM (not active)
[2]
  AC50: 1.73 µM (active)
[3]
  EC50: 10.8 µM (not active)

## N#Cc1c(NC(=O)CCN2C(=O)c3ccccc3C2=O)oc(-c2ccccc2)c1-c1ccccc1
[4]
  IC50: > 50 µM (not active)

## COc1ccc(NC(=O)c2ccc(C)cc2)c(OC)c1
[5]
  EC50: 3.78 µM (active)

## CN(C(=O)COC(=O)/C=C/c1ccc(Cl)c(Cl)c1)c1c(N)n(Cc2ccccc2)c(=O)[nH]c1=O
[6]
  IC50: > 100 µM (active)

## COC(=O)c1cc(C)nc(S(C)(=O)=O)n1
[7]
  IC50: > 100 µM (not active)
Bcl-2-related protein A1 [8]
  IC50: > 100 µM (not active)
Bcl-2-related protein A1 [9]
  IC50: > 100 µM (not active)

## O=C(N/N=C/C=C/c1ccc([N+](=O)[O-])cc1)c1cccs1
[10]
  IC50: 4.28 µM (active)
[11]
  EC50: > 300 µM (not active)
[12]
  IC50: 20.7 µM (inactive)
[13]
  IC50: 6.61 µM (active)
[14]
  EC50: 53.6 µM (active)

## CC(=O)Nc1cc(OC(C)=O)c2nonc2c1OC(C)=O
[15]
  EC50: 6.32 µM (active)
[16]
  IC50: 6.21 µM (active)
Genome polyprotein
  IC50: 38 µM (active)
Vero
  CC50: 12.6 µM (active)
[17]
  IC50: 46.6 µM (not active)
[18]
  EC50: 5.65 µM (active)
[19]
  IC50: > 80 µM (inactive)
[20]
  AC50: 4.89 µM (active)

## COc1ccc(C(=O)CN2CCOCC2)cc1F
Ephrin type-A receptor 4
  IC50: > 100 µM (not active)

## COc1ccc(C(=O)CNc2ccc3ccccc3c2)cc1
[21]
  IC50: > 50 µM (not active)
